The target in one assay is T1, Adenosine receptor A1 (Rattus norvegicus, UniProt P25099).
T1 sequence (P25099 whole entry): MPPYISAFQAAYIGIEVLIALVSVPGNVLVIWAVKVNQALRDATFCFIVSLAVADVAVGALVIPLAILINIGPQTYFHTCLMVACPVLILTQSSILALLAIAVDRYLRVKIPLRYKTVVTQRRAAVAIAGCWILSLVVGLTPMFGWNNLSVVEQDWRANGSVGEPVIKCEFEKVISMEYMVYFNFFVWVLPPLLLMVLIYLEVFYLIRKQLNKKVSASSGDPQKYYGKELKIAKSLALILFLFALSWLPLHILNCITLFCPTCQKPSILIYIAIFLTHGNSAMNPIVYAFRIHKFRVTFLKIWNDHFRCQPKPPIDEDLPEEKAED

The next assay addresses Adenosine receptor A2a (Rattus norvegicus, UniProt P30543).
For another assay, the target named is T2, Adenosine receptor A3 (Rattus norvegicus, UniProt P28647).
T2 sequence (P28647 whole entry): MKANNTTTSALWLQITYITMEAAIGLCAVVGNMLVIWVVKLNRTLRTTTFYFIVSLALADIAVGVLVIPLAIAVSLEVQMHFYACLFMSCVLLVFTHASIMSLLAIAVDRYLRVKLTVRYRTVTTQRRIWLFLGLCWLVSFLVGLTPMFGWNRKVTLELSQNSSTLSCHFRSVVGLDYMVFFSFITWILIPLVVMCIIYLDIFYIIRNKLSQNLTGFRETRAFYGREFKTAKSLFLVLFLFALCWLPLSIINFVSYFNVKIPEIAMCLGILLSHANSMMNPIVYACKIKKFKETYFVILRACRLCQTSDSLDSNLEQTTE
Briefly: biochemical.

Sequence of Adenosine receptor A2a (P30543 whole entry): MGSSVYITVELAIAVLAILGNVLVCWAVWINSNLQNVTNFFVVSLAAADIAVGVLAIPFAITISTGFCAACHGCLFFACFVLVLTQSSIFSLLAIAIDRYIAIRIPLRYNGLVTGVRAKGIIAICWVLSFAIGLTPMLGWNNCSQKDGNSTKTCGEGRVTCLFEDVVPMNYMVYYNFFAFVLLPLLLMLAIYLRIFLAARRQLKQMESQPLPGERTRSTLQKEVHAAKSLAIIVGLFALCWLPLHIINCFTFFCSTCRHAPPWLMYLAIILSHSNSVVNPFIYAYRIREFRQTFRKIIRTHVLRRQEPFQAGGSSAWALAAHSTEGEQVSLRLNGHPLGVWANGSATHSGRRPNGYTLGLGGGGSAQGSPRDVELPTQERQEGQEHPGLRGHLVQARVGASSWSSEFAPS
Description for Adenosine receptor A1: Tested for the binding affinity of A1 receptor by displacing the [3H]-PIA in rat brain membranes
Description for Adenosine receptor A3: Tested for the binding affinity of A3 receptor by displacing N6-[[125I]-4-amino-3-iodobenzyl]-adenosine-5''-N-methyluronamide from membranes of CHO cells transfected with rat A3-cDNA

Consider `Nc1ccc(CCNc2ncnc3c2ncn3[C@@H]2O[C@H](CO)[C@@H](O)[C@H]2O)cc1`, for which, on Adenosine receptor A1, the Ki (as a rule, a dissociation constant, usually derived from enzyme kinetics or from competition with a known ligand) turned out to be 0.014 µM.

As for `CNC(=O)[C@H]1O[C@@H](n2cnc3c(NCc4ccc(N)c(I)c4)ncnc32)[C@H](O)[C@@H]1O`, on Adenosine receptor A2a, the Ki turned out to be 0.197 µM.

Take `Nc1ccc(CCNc2ncnc3c2ncn3C2O[C@H](CO)[C@@H](O)[C@H]2O)cc1I` (stereo not given in full): the figures for the inhibition constant Ki at Adenosine receptor A1 and at Adenosine receptor A3 were 0.0021 µM and 0.0155 µM, respectively.

`OC[C@H]1O[C@@H](n2cnc3c(NC4CCCC4)ncnc32)[C@H](O)[C@@H]1O` [N6-CYCLOPENTYLADENOSINE] returned an inhibition constant (Ki) on Adenosine receptor A2a of 0.462 µM.

The values above are taken from ChEMBL document CHEMBL1127377, “2-Substitution of N6-benzyladenosine-5'-uronamides enhances selectivity for A3 adenosine receptors” (J Med Chem, 1994).
